According to US6664086B2, “cDNA, genomic, and predicted protein sequences of learning-induced kinases” (priority 1998, dated 2003):
Entries after “also recorded” stand apart in the source; their conditions may differ. Starred links: 1 amine or outer side, 2 acyl side, 3 side chain; linkers in the order of their positions; H or OH if unused. Positions of bridges follow the written chain, without caps; N, C: chain ends. Non-standard residues stand in square brackets, D forms with d. Residues, ends and D or L forms follow the SMILES beside them. Chains are numbered I, II in the order given. Actinocin(9to1) = Cc1c2oc3c(C)ccc(C(=O)[*:1])c3nc-2c(C(=O)[*:2])c(N)c1=O; NMeV = CN[C@H](C(=O)O)C(C)C; Sar = CNCC(=O)O

Legend:
[1] = tested on: eyeblink/nictitating membrane conditioned responses (CRs); infusion into dorsal anterior IN; test: Eyeblink conditioning after drug infusion into the interpositus nucleus (IN); assay type: in vivo, New Zealand White male rabbits (Oryctolagus cuniculus)
Experimental: Rabbits underwent eyeblink training 30 min. after infusion of 1 ng of actinomycin D (ActD) or artificial cerebrospinal fluid (ACSF) into the dorsal anterior IN ipsilateral to the trained eye. Rabbits were trained with 10 paired tone-air trials per day to insure that ActD could act during learning (see Methods). […] Most animals in the experimental group reached criterion after 5 days of additional training without drug infusion.
New Zealand White male rabbits (Oryctolagus cuniculus), weighing between 2 and 3 kg were individually housed at the University of Southern California Hedco Neuroscience Building vivariunm with a 12-hr light and dark cycle. The experiment was conducted during the light phase of the cycle. Rabbits had ad lib access to food and water.
(§1) Stainless steel guide cannulas (25 ga) were implanted in the head of the animals with the tip fixed at 1.5 to 2.0 mm dorsal to the IN ipsilateral to the eye to be trained (left) (stereotaxic coordinates from lambda: 0.8 mm anterior, 5.2 mm lateral, and 14.0 mm ventral). Each guide cannula was filled with an inner stainless steel stylet designed to keep the guide cannula patent. Animals were given 5 days to recover from surgery. At infusion the stylet was removed and an inner cannula (31 ga) was inserted to the target locus. Delivery of fluids through the inner cannula was accomplished by a 10 μl Hamilton syringe driven by a syringe pump. Fluids were delivered to the target area at a rate of 0.38 μl per min for 2.6 min. For the experimental group, 1 ng of ActD (in 1 μl of vehicle) was infused daily 30 min prior to the start of each training session for 5 days (n=7). […] The animals were given 2 days rest and then trained for 5 more days without drug infusion. At training day 11, the experimental group was treated with 1 μg muscimol which is known to reversibly inactivate the IN (Krupa and Thompson, 1997). For the control group, 1 μl of ACSF (vehicle) was infused into the IN for 5 days (n=5). At day 6, control animals were infused with 1 ng of ActD 30 min prior to training. On training day 7, 1 μg of muscimol was infused.
For the infusion experiments, all animals were subjected to eye-blink conditioning under the delay paradigm. The rabbits were allowed one day (1 hour) of habituation to the restrainer and the behavioral recording chamber. On the following day, paired tone-airpuff training began. For each day, the training session began 30 min post drug infusion and we gave only 10 trials/day (instead of the standard 100 trials per day, see below) in order to maximize the possibility that ActD was acting on the learning process before the long term memory had been well established. The tone CS was a 350 ms, 1000 Hz., 85 dB tone and the airpuff US was a 100 ms puff of air (3 psi at the source) delivered to the rabbit's cornea, the CS and US coterminating. The mean intertrial interval (ITI) was 60±10 sec. Nictitating membrane (NNI) conditioned responses (CRs) were measured using a minitorque potentiometer attached to a small loop of monofilament nylon thread on the NM of the rabbit's left, eye. Output of the potentiometer was digitized and recorded by computer. A conditioned response was defined as any NM extension response greater than 0.5 mm that occurred after tone onset but before airpuff onset. The intra- and intertrial timing, stimulus presentations, data collection and analysis were performed by a PC with a program written in Forth and machine language (Lavond and Steinmetz, 1989b).

IN tissue = test: Pilot dose studies of ActD infusion into the IN (tissue damage); assay type: in vivo, New Zealand White male rabbits (Oryctolagus cuniculus); conditions: e.g. 5 ng, infused into IN
Description: as §1, with “For the experimental group, 1 ng of ActD (in 1 μl of vehicle) was infused daily 30 min prior to the start of each training session for 5 days (n=7).” left out

eyeblink conditioning = conditions: infusion into the IN, rabbit (Bracha and Bloedel, 1996); cited from earlier work

What does the source list for `Cc1c2oc3c(C)ccc(C(=O)N[C@@H]4C(=O)N[C@H](C(C)C)C(=O)N5CCC[C@H]5C(=O)N(C)CC(=O)N(C)[C@@H](C(C)C)C(=O)O[C@@H]4C)c3nc-2c(C(=O)N[C@@H]2C(=O)N[C@H](C(C)C)C(=O)N3CCC[C@H]3C(=O)N(C)CC(=O)N(C)[C@@H](C(C)C)C(=O)O[C@@H]2C)c(N)c1=O` [ActD, actinomycin D] (I: T[dV]P[Sar][NMeV] / II: T[dV]P[Sar][NMeV]; ester I:1-I:C, II:1-II:C; linker I:N-II:N via Actinocin(9to1))?
Acquisition of conditioned responses (CRs) during 5 days of training ([1]; 1 ng infused into IN daily 30 min before training, 5 days, 10 paired CS-US trials per day, n=7, vs ACSF): low levels of CRs; also recorded: completely prevents learning; also recorded: inhibited eyeblink conditioning; Expression of already acquired CRs ([1]; 1 ng infused into IN on day 6 in control animals conditioned under ACSF (n=5)): did not prevent expression of acquired CRs; also recorded: no effect on the performance of CRs; CRs on training without drug after ActD treatment (reversibility) ([1]; experimental group, 2 days rest, then training days 6-10 without drug infusion): gradual increase of CRs; Tissue damage at higher doses (IN tissue): caused permanent damage to the tissue

With `COc1ccc(C[C@H]2NC[C@H](O)[C@H]2OC(C)=O)cc1` [anisomycin] as the compound, how does the “Effect on eyeblink conditioning” value (eyeblink conditioning) read?
Its value is “interfered with conditioning”.

With `NCc1cc(=O)[nH]o1` [muscimol] as the compound, how does the “Expression of CRs, experimental group day 11” value ([1]; 1 μg infused into IN at day 11, experimental group after retraining) read?
Its value is “completely abolished the expression of CRs”.

And the “Expression of CRs, control group day 7” value ([1]; 1 μg infused into IN on day 7, conditioned control animals)?
The value was “completely abolished the CRs”.
